Data published in the supplement of paper PMC10307832.

Legend:
Assay in all cases: relative viability (nuclei count vs DMSO), 5 days (fraction); higher = more cells survive
[1] = compound: C1CC2=C(C1)C=C(C=C2)OC3=NC(=C4C(=N3)N(C=N4)CC5=CC=C(C=C5)C6=CC=CC=C6)N[C@@H](CC7=CC=CC=C7)CO [QS11] + Nc1nc2[nH]cc(CCc3ccc(C(=O)N[C@@H](CCC(=O)O)C(=O)O)cc3)c2c(=O)[nH]1 [Pemetrexed] (partner 0.2 µM)
In short: (§1)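 Dosing by pin tool came one day after lung cancer cell lines were seeded in 1536-well plates, using either one drug or a fixed anchor-drug dose plus five library-drug doses (not always all listed) in √10 steps. After 5 days, nuclei were counted on 4× images. Relative viability is treated-well nuclei count divided by vehicle-well nuclei count, and values are medians of duplicate plates.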

[2] = compound: C[As](C)SC[C@H](NC(=O)CC[C@H](N)C(=O)O)C(=O)NCC(=O)O [Darinaparsin] + CC(=O)Nc1cccc(-n2c(=O)n(C3CC3)c(=O)c3c(Nc4ccc(I)cc4F)n(C)c(=O)c(C)c32)c1 [Trametinib] (partner 0.02 µM)
In short: as §1

[3] = compound: C1CC2=C(C1)C=C(C=C2)OC3=NC(=C4C(=N3)N(C=N4)CC5=CC=C(C=C5)C6=CC=CC=C6)N[C@@H](CC7=CC=CC=C7)CO [QS11] + Nc1ncn([C@H]2C[C@H](O)[C@@H](CO)O2)c(=O)n1 [Decitabine] (partner 2 µM)
In short: as §1

[4] = compound: C1CC2=C(C1)C=C(C=C2)OC3=NC(=C4C(=N3)N(C=N4)CC5=CC=C(C=C5)C6=CC=CC=C6)N[C@@H](CC7=CC=CC=C7)CO [QS11] + NC(=O)Nc1cc(-c2cccc(F)c2)sc1C(=O)N[C@H]1CCCNC1 [AZD7762] (partner 0.2 µM)
In short: as §1

Row | Cell Line | relative viability ([1]; first compound 0.08 µM) | relative viability ([1]; first compound 0.253 µM) | relative viability ([1]; first compound 0.8 µM) | relative viability ([1]; first compound 2.53 µM) | relative viability ([1]; first compound 8 µM) | relative viability ([2]; first compound 0.08 µM) | relative viability ([2]; first compound 0.8 µM) | relative viability ([2]; first compound 2.53 µM) | relative viability ([2]; first compound 8 µM) | relative viability ([3]; first compound 0.08 µM) | relative viability ([3]; first compound 0.253 µM) | relative viability ([3]; first compound 0.8 µM) | relative viability ([3]; first compound 2.53 µM) | relative viability ([3]; first compound 8 µM) | relative viability ([4]; first compound 0.08 µM) | relative viability ([4]; first compound 0.253 µM) | relative viability ([4]; first compound 0.8 µM) | relative viability ([4]; first compound 2.53 µM) | relative viability ([4]; first compound 8 µM)
1 | UMC-11 | 0.87 | 0.89 | 0.716 | 0.97 | 0.993 | 0.781 | 0.643 | 0.729 | 0.704 | 0.318 | 0.482 | 0.604 | 0.543 | 0.651 | – | – | – | – | –
2 | LXF-289 | 0.873 | 0.931 | 0.761 | 0.9 | 0.876 | 0.768 | 0.667 | 0.677 | 0.697 | 0.347 | 0.361 | 0.346 | 0.443 | 0.396 | 1.14 | 1.08 | 0.899 | 1 | 0.93
3 | NCI-H647 | 0.2 | 0.146 | 0.155 | 0.159 | 0.202 | 0.537 | 0.512 | 0.385 | 0.655 | 0.391 | 0.44 | 0.349 | 0.374 | 0.309 | 0.441 | 0.302 | 0.592 | 0.385 | 0.565
4 | NCI-H1651 | 0.575 | 0.616 | 0.582 | 0.598 | 0.584 | 0.825 | 0.784 | 0.813 | 0.898 | 0.591 | 0.641 | 0.54 | 0.566 | 0.578 | 0.445 | 0.481 | 0.487 | 0.458 | 0.404
5 | NCI-H838 | 0.245 | 0.237 | 0.236 | 0.237 | 0.24 | 0.54 | 0.458 | 0.504 | 0.666 | 0.494 | 0.483 | 0.43 | 0.422 | 0.411 | 1 | 0.87 | 0.844 | 0.905 | 1.03
6 | NCI-H661 | 1.03 | 0.911 | 0.794 | 0.953 | 0.857 | 0.646 | 0.618 | 0.532 | 0.677 | 0.511 | 0.585 | 0.474 | 0.554 | 0.46 | – | – | – | – | –
7 | CAL-12T | 1.26 | 1.37 | 1.05 | 1.24 | 1.04 | 0.333 | 0.376 | 0.383 | 0.306 | – | – | – | – | – | 0.736 | 0.572 | 0.546 | 0.596 | 0.551
8 | SK-MES-1 | 1.08 | 0.94 | 0.832 | 0.977 | 0.863 | 0.558 | 0.521 | 0.551 | 0.61 | 0.361 | 0.444 | 0.339 | 0.447 | 0.351 | – | – | – | – | –
9 | NCI-H1563 | 0.806 | 0.838 | 0.722 | 0.881 | 0.886 | – | – | – | – | – | – | – | – | – | – | – | – | – | –
10 | NCI-H2023 | 0.293 | 0.276 | 0.241 | 0.197 | 0.194 | 0.728 | 0.557 | 0.629 | 0.579 | 0.231 | 0.227 | 0.217 | 0.249 | 0.224 | – | – | – | – | –
11 | NCI-H520 | 0.791 | 0.871 | 0.863 | 0.783 | 0.488 | 0.883 | 0.718 | 0.669 | 0.697 | 0.567 | 0.513 | 0.531 | 0.537 | 0.531 | – | – | – | – | –
12 | NCI-H2009 | 1.08 | 1.06 | 1.01 | 0.978 | 0.985 | 0.283 | 0.246 | 0.196 | 0.27 | 0.362 | 0.426 | 0.364 | 0.409 | 0.371 | – | – | – | – | –
13 | COR-L23 | 0.196 | 0.179 | 0.206 | 0.198 | 0.199 | 0.699 | 0.581 | 0.538 | 0.681 | 0.44 | 0.433 | 0.443 | 0.357 | 0.302 | – | – | – | – | –
14 | A549 | – | – | – | – | – | – | – | – | – | 0.224 | 0.215 | 0.271 | 0.214 | 0.212 | – | – | – | – | –
15 | NCI-H1703 | – | – | – | – | – | – | – | – | – | – | – | – | – | – | – | 0.12 | 0.121 | 0.121 | 0.168
16 | SW 1573 | 0.811 | 0.926 | 0.792 | 0.418 | 0.539 | 0.589 | 0.516 | 0.58 | 0.744 | 0.548 | 0.612 | 0.558 | 0.475 | 0.388 | – | – | – | – | –
17 | NCI-H727 | – | – | – | – | – | 0.372 | 0.397 | 0.381 | 0.383 | 0.767 | 0.855 | 0.762 | 0.899 | 0.61 | 0.694 | 0.581 | 0.584 | 0.727 | 0.612
18 | NCI-H1650 | 0.472 | 0.33 | 0.321 | 0.34 | 0.366 | 0.915 | 0.49 | 0.593 | 0.636 | 0.453 | 0.447 | 0.296 | 0.56 | 0.406 | – | – | – | – | –
19 | COR-L 105 | 1.14 | 0.96 | 1.04 | 0.955 | 0.942 | 0.473 | 0.456 | 0.427 | 0.45 | 0.747 | 0.633 | 0.731 | 0.639 | 0.599 | – | – | – | – | –
